Earlier results as cited in PMC9098912, “Molecular basis for inhibiting human glucose transporters by exofacial inhibitors” (Nature Communications, 2022).

Key:
GLUT1 = tested on: GLUT1; design: method as in Siebeneicher et al., 2016; details: SAR of Bayer compounds; ref Siebeneicher et al., 2016; cited from earlier work
GLUT1/3 over GLUT2 = tested on: GLUT1/3 over GLUT2; design: method as in Siebeneicher et al., 2016; details: ref Siebeneicher et al., 2016; cited from earlier work
GLUT3 = tested on: GLUT3; design: method as in PMID 12792024; details: cited from earlier work

Row | SMILES | GLUT1 potency (GLUT1) | Selectivity (GLUT1/3 over GLUT2) | GLUT3 inhibition (GLUT3)
1 | COc1ccc(F)cc1N1CCN(c2ncnc3c2cnn3-c2ccccc2)CC1 [cmpd 15] | favors GLUT1 association | selective inhibition to GLUT1/3 over GLUT2 | 
2 | C=CCCCCCCCCCO[C@H]1[C@H](O)[C@@H](CO)OC(O)[C@@H]1O (stereo partly drawn) [C3361] |  |  | weak inhibitor
